Measured values published in PubChem BioAssay AID1259411 (Chemical Carcinogenesis Research Information System (CCRIS), 2018).
Calls of active or inactive are those of the source. How the calls were made is not given here.

System: rodent carcinogenicity bioassays, tumor incidence
Assay: CCRIS carcinogenicity studies
How it was run: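 Archive of carcinogenicity, mutagenicity, tumor promotion and tumor inhibition results drawn from journals, NCI reports and other sources, expert-reviewed; covers 1985-2011 and is no longer updated.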

c1ccc2c(c1)cc1ccc3cccc4ccc2c1c34
carcinogen call (Species: FISH, Strain/Sex: MT. SHASTA RAINBOW TROUT/MALE, FEMALE, Route: TRANSCHORIONIC INJECTION, Dose: 0, 0.09, 0.9, 9 UG IN DMSO ADMINISTERED IN OVO APPROXIMATELY 2 DAYS PRIOR TO HATCHING (STUDY DURATION: 1 YR), Dose: 0, 0.09, 0.9, 9 UG IN DMSO ADMINISTERED IN OVO APPROXIMATELY 2 DAYS PRIOR TO HATCHING (STUDY DURATION: 1 YR)): inactive; negative
carcinogen call (Species: FISH, Strain/Sex: MT. SHASTA RAINBOW TROUT/MALE, FEMALE, Route: TRANSCHORIONIC INJECTION, Dose: 0, 4.5, 9, 18 UG IN DMSO ADMINISTERED IN OVO APPROXIMATELY 2 DAYS PRIOR TO HATCHING, Dose: 0, 4.5, 9, 18 UG IN DMSO ADMINISTERED IN OVO APPROXIMATELY 2 DAYS PRIOR TO HATCHING, Tumor Site: Type of Lesion: LIVER: TUMOR): active; positive
carcinogen call (Species: FISH, Strain/Sex: RAINBOW TROUT/MALE, FEMALE, Route: INTRAPERITONEAL, Dose: 0, 1 MG IN 0.4 ML PROPYLENE GLYCOL 1/MO FOR 12 MO BEGINNING AT 10 MO OF AGE (STUDY DURATION: 18 MO), Tumor Site: Type of Lesion: LIVER: CARCINOMA): active; positive
carcinogen call (Species: FISH, Strain/Sex: RAINBOW TROUT/MALE, FEMALE, Route: ORAL, Dose: 0, 1000 PPM IN DIET FOR 18 MO (STUDY DURATION: 18 MO), Tumor Site: Type of Lesion: LIVER: CARCINOMA): active; positive
carcinogen call (Species: FISH, Strain/Sex: SHEEPSHEAD MINNOW/MALE, FEMALE, Route: IMMERSION, Dose: 0, 2, 30, 200 PPB APPROXIMATE CONCENTRATIONS ADMINISTERED 1/WK FOR 6 OR 24 HR FOR 1 OR 2 WK (STUDY DURATION: 39 WK), Dose: 0, 2, 30): inactive; negative
carcinogen call (Species: HAMSTER, Route: GAVAGE, Tumor Site: Type of Lesion: FORESTOMACH: PAPILLOMA, CARCINOMA): active; positive
carcinogen call (Species: HAMSTER, Route: INTRATRACHEAL, Tumor Site: Type of Lesion: LUNG): active; positive
carcinogen call (Species: HAMSTER, Route: ORAL, Dose: 500 PPM IN DIET 4 D/WK FOR UP TO 14 MO, Tumor Site: Type of Lesion: ESOPHAGUS, FORESTOMACH, INTESTINES, Tumor Site: Type of Lesion: ESOPHAGUS, FORESTOMACH, INTESTINES): active; positive
carcinogen call (Species: HAMSTER, Route: SUBCUTANEOUS, Dose: 2.5 MG, 3 MO, Tumor Site: Type of Lesion: INJECTION SITE: SARCOMA): active; positive
carcinogen call (Species: HAMSTER, Route: SUBCUTANEOUS, Tumor Site: Type of Lesion: INJECTION SITE: SARCOMA): active; positive
carcinogen call (Species: HAMSTER, Strain/Sex: MALE,FEMALE, Route: INTRATRACHEAL, Dose: 0.25-2 MG, 1/WK FOR 30 WK, Tumor Site: Type of Lesion: RESPIRATORY TRACT): active; positive
carcinogen call (Species: HAMSTER, Strain/Sex: SYRIAN/FEMALE, Route: INTRATRACHEAL, Dose: 0, 1 MG IN 0.1 ML PHOSPHATE BUFFER 15/WK FOR 4 MO (STUDY DURATION: 443 D), Tumor Site: Type of Lesion: TRACHEA: PAPILLOMA OR CARCINOMA): active; positive
carcinogen call (Species: HAMSTER, Strain/Sex: SYRIAN/MALE,FEMALE, Route: SUBCUTANEOUS, Dose: 0.0005-80 MG, 10 DOSES, Tumor Site: Type of Lesion: INJECTION SITE: SARCOMA): active; positive
carcinogen call (Species: HAMSTER, Strain/Sex: SYRIAN/MALE, Route: GAVAGE, Dose: 2-5 MG 2/WK FOR 1-11 MO, Tumor Site: Type of Lesion: STOMACH: CARCINOMA, PAPILLOMA): active; positive
carcinogen call (Species: MONKEY, Route: INTRATRACHEAL, Dose: 3-15 MG, 1/WK, Tumor Site: Type of Lesion: LUNG: SQUAMOUS CARCINOMA): active; positive
carcinogen call (Species: MONKEY, Strain/Sex: TUPAIA GLIS/MALE,FEMALE, Route: SUBCUTANEOUS, Dose: 10 MG, SINGLE DOSE, Tumor Site: Type of Lesion: INJECTION SITE: SARCOMA): active; positive
carcinogen call (Species: MOUSE, Route: SUBCUTANEOUS, Tumor Site: Type of Lesion: INJECTION SITE: SARCOMA): active; positive
carcinogen call (Species: MOUSE, Strain/Sex: A/J/MALE, Route: INTRAPERITONEAL, Dose: 0, 10, 100 MG/KG BW IN TRICAPRYLIN ONCE AT 4-5 WK OF AGE (STUDY DURATION: 7-8 MO), Dose: 0, 10, 100 MG/KG BW IN TRICAPRYLIN ONCE AT 4-5 WK OF AGE (STUDY DURATION: 7-8 MO), Tumor Site: Type of Lesion: LUNG: TUMOR): active; positive
carcinogen call (Species: MOUSE, Strain/Sex: B6C3F1/FEMALE, Route: ORAL, Dose: 0, 5, 25, 100 PPM IN DIET FOR 2 YR (STUDY DURATION: 2 YR), Dose: 0, 5, 25, 100 PPM IN DIET FOR 2 YR (STUDY DURATION: 2 YR), Tumor Site: Type of Lesion: FORESTOMACH: PAPILLOMA OR CARCINOMA, ESOPHAGUS: PAPILLOMA OR CARCINOMA, TONGUE: PAPILLOMA OR CARCINOMA, Tumor Site: Type of Lesion: FORESTOMACH: PAPILLOMA OR CARCINOMA, ESOPHAGUS: PAPILLOMA OR CARCINOMA, TONGUE: PAPILLOMA OR CARCINOMA): active; positive
carcinogen call (Species: MOUSE, Strain/Sex: B6C3F1/MALE, Route: INTRAPERITONEAL, Dose: 0, 0.005, 0.015 UMOL/G ONCE AT 12 DAYS OF AGE (STUDY DURATION: 10 MO), Dose: 0, 0.005, 0.015 UMOL/G ONCE AT 12 DAYS OF AGE (STUDY DURATION: 10 MO), Tumor Site: Type of Lesion: LIVER: HEPATOMA): active; positive
carcinogen call (Species: MOUSE, Strain/Sex: B6C3F1/MALE, Route: INTRAPERITONEAL, Dose: 0, 125, 250, 375 UG ADMINISTERED TO 15-DAY OLD MICE ONCE (STUDY DURATION: 52 WK), Dose: 0, 125, 250, 375 UG ADMINISTERED TO 15-DAY OLD MICE ONCE (STUDY DURATION: 52 WK), Tumor Site: Type of Lesion: LIVER: TUMOR): active; positive
